These results are taken from PubChem BioAssay (NCI).

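96-well plates; 48 h exposure; 5 concentrations. Endpoints by linear interpolation between flanking doses. Not reached: highest tested concentration assigned. Here, GI50 denotes the concentration required for 50% inhibition of growth. TGI is the concentration that stops growth completely.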 Some results are limits rather than exact numbers.

Some test systems named below: ACHN renal; DU-145 prostate; HOP-92 NSCLC; IGROV1 ovarian; MALME-3M melanoma; NCI-H460 lung; OVCAR-4 ovarian; SK-MEL-2 melanoma; SNB-19 CNS; SNB-75 CNS.
Holding throughout (assay): NCI anticancer screen, dose series, 48 h

With `CCN1C(=S)N(c2ccccc2)C2NC(=S)N(/N=C/C=C/c3ccccc3OC)C21` (stereo not given), the GI50 is 0.556 µM in the test with ACHN renal; 0.356 µM with DU-145 prostate; 3.98 µM in the test with HOP-92 NSCLC; 0.606 µM in the test with IGROV1 ovarian; 0.957 µM in the test on MALME-3M melanoma; 0.37 µM in the test with NCI-H460 lung. The GI50 is 0.839 µM in the test on OVCAR-4 ovarian, 0.612 µM with SK-MEL-2 melanoma, 0.496 µM in the test with SNB-19 CNS and 0.211 µM in the test on SNB-75 CNS. Also, the TGI was more than 100 µM with ACHN renal; 28.5 µM in the test on DU-145 prostate; more than 100 µM in the test with HOP-92 NSCLC; more than 100 µM in the test with IGROV1 ovarian; more than 100 µM in the test on MALME-3M melanoma; more than 100 µM in the test with NCI-H460 lung. In addition, the TGI in the test with OVCAR-4 ovarian was more than 100 µM; with SK-MEL-2 melanoma, more than 100 µM; in the test with SNB-19 CNS, more than 100 µM; in the test on SNB-75 CNS it was 4.36 µM.

`c1cc(NNc2cccc(-c3nn[nH]n3)c2)cc(-c2nn[nH]n2)c1`: the TGI with ACHN renal, with DU-145 prostate, in the test with HOP-92 NSCLC, with IGROV1 ovarian, in the test with MALME-3M melanoma and in the test on NCI-H460 lung was more than 100 µM each time. Further, the TGI with OVCAR-4 ovarian, in the test with SK-MEL-2 melanoma, in the test on SNB-19 CNS and with SNB-75 CNS was more than 100 µM throughout.

Consider `O=S(=O)(NCCCNc1nccc(-c2c(-c3ccc(O)cc3)nc3sccn23)n1)c1ccc(F)cc1`, for which the GI50 with ACHN renal was 2.09 µM; with DU-145 prostate, 2.52 µM; in the test on HOP-92 NSCLC, 2.65 µM; with IGROV1 ovarian, 2.85 µM; with MALME-3M melanoma, 0.0391 µM; with NCI-H460 lung, 2.37 µM. In addition, the GI50 in the test on OVCAR-4 ovarian was 3.36 µM; with SK-MEL-2 melanoma, 1.18 µM; with SNB-19 CNS, 4.27 µM; in the test with SNB-75 CNS, 1.03 µM. Also, the TGI is more than 100 µM in the test with ACHN renal; 9.56 µM in the test on DU-145 prostate; 8.56 µM in the test on HOP-92 NSCLC; 8.78 µM with IGROV1 ovarian; 3.56 µM with MALME-3M melanoma; 7.18 µM in the test with NCI-H460 lung. Moreover, the TGI is 9.92 µM in the test with OVCAR-4 ovarian, 2.81 µM in the test on SK-MEL-2 melanoma, more than 100 µM in the test on SNB-19 CNS and 7.91 µM with SNB-75 CNS.

Turning to `CCSCC1CC(O)(c2ccccc2)CC(c2ccc(F)cc2)O1` (stereo not given), the GI50 with ACHN renal is 2.37 µM; in the test with DU-145 prostate, 2.66 µM; in the test with HOP-92 NSCLC it was 1.25 µM; in the test on IGROV1 ovarian, 2.12 µM; with MALME-3M melanoma, 1.56 µM; in the test on NCI-H460 lung it was 2.24 µM. Further, the GI50 with OVCAR-4 ovarian was 2.69 µM; in the test on SK-MEL-2 melanoma it was 1.79 µM; in the test on SNB-19 CNS it was 2.63 µM; in the test on SNB-75 CNS, 1.88 µM. Also, the TGI with ACHN renal came out at 6.56 µM; with DU-145 prostate it was 7.17 µM; in the test with HOP-92 NSCLC it was 2.72 µM; in the test with IGROV1 ovarian, 5.75 µM; in the test with MALME-3M melanoma, 3.51 µM; in the test on NCI-H460 lung it was 4.63 µM. In addition, the TGI came to 11.5 µM in the test with OVCAR-4 ovarian, 3.53 µM with SK-MEL-2 melanoma, 9.36 µM in the test on SNB-19 CNS and 5.74 µM in the test on SNB-75 CNS.
